Common to all, as to assay type: in vivo
Assay [1] relates to souris. The assay can be described thus: Global behaviour and reactivities, mouse, i.p. On the procedure: Le composé CRL 41 334, en suspension dans une solution de gomme arabique, a été administré par voie intrapéritonéale sous un volume de 20 ml/kg chez la souris (mâle, NMRI, C.E.R. Janvier) et de 5 ml/kg chez le rat (mâle, CD₁; SPRAGUE DAWLEY, Charles River).
Des lots de 3 animaux sont observés avant, puis 15 mn, 30 mn, 1h, 2h, 3h et 24 heures après l'administration du composé CRL 41 334.
Le CRL 41 055, en suspension dans une solution de gomme arabique, a été administré par voie intrapéritonéale sous un volume de 20 ml/kg chez la souris (mâle, NMRI, Evic Ceba).
Le CRL 40 956, en suspension dans une solution de gomme arabique a été administré par voie intrapéritonéale sous un volume de 20 ml/kg chez la souris (mâle, NMRI, Evic Céba) et de 5 ml/kg chez le rat (mâle, CD₁, Sprague Dawley, Charles River).
Des lots de 3 animaux sont observés avant, puis 15 mn, 30 mn, 1 h, 2 h, 3 h et 24 heures après l'administration de CRL 40 956.

Another assay has as its system rat. The assay can be described thus: Search for stereotyped movements, rat. The source says:
Des lots de 6 rats reçoivent une injection du composé CRL 41 334 ou d'amphétamine, puis sont immédiatement placés dans des boîtes de petites dimensions (20 x 10 x 10 cm) où leur comportement stéréotypeé est coté de 0 à 3 jusqu'à extinction de l'effet.

The subject of assay [2] is souris. The assay can be described thus: Interaction with apomorphine, mouse. On the procedure: Des lots de 6 souris reçoivent le composé CRL 41 334 une demi-heure avant l'injection sous-cutanée d'apomorphine, à la dose de 1 ou 16 mg/kg. • a) Apomorphine 1 mg/kg • b) Apomorphine 16 mg/kg
For assay [3], the system named is souris. The assay can be described thus: Interaction with oxotremorine, mouse. As to conditions: oxotrémorine 0,5 mg/kg i.p. As to the method: Le composé CRL 41 334 est administré à des lots de 6 souris une demi-heure avant l'injection intrapéritonéale de 0,5 mg/kg d'oxotrémorine.
Assay [4] has as its system souris. The assay can be described thus: Electroshock. As to conditions: 128 mg/kg. The source says:
Le test est pratiqué sur des lots de 10 souris, une demi-heure après l'administration du composé CRL 41 334.

For assay [5], the system named is souris. The assay can be described thus: Spontaneous motility (actimeter). On the procedure: Après avoir reçu le composé CRL 41 334, les souris sont placées en actimètre où leur motilité est enregistrée pendant 30 minutes.
Une demi-heure après avoir reçu le CRL 41 055, les souris (6 par dose, 12 témoins) sont placées en actimètre où leur motilité est enregistrée pendant 30 minutes.
Une demi-heure après avoir reçu le CRL 40 956, les souris (6 par dose, 12 témoins) sont placées en actimètre ou leur motilité est enregistrée pendant 30 minutes.

In assay [6] the test system is souris. The assay can be described thus: Intergroup aggressiveness. The following applies: 32 et 128 mg/kg. On the procedure:
Après avoir séjourné pendant 3 semaines dans chacune des moitiés d'une cage séparées par une cloison opaque, des groupes de 3 souris reçoivent le composé CRL 41 334. Une demi-heure plus tard, les deux groupes d'une même cage sont réunis par retrait de la cloison et on note le nombre de combats qui surviennent en 10 minutes. Le test est pratiqué pour moitié sur les souris habituelles (NMRI, C.E.R. Janvier) et pour moitié sur des souris NMRI (Iffa Credo).
Après avoir séjourné pendant 3 semaines dans chacune des moitiés d'une cage séparée par une cloison opaque, des groupes de 3 souris reçoivent le CRL 40 956. Une demi-heure plus tard, les deux groupes d'une même cage sont réunis par retrait de la cloison et on note le nombre de combats qui surviennent en 10 minutes.

The subject of assay [7] is souris. The assay can be described thus: Asphyxic anoxia (gallamine triethiodide). As to conditions: 128 mg/kg, triiodoéthylate de gallamine 32 mg/kg i.p. On the procedure:
Des lots de 20 souris reçoivent le composé CRL 41 334 une demi-heure avant l'administration intrapéritonéale de 32 mg/kg de triiodoéthylate de gallamine.
Des lots de 10 souris reçoivent le CRL 40 956 une demi-heure avant l'administration intrapé-ritonéale de 32 mg/kg de triodoéthylate de Gallamine.

Assay [8] has as its system souris. The assay can be described thus: Interaction with barbital. The following applies: souris, 8, 32 et 128mg/kg, barbital 220 mg/kg i.p. As to the method:
Une demi-heure après l'administration du composé CRL 41 334, des lots de 20 souris reçoivent une injection intrapéritonéale de barbital ([…]).
Une demi-heure après l'administration du CRL 40 956 des lots de 10 souris reçoivent une injection intrapéritonéale de 200 mg/kg de barbital.

From patent EP0258134A1, “Therapeutical compositions containing benzhydryl thiomethane derivatives” (LABORATOIRE L. LAFON, priority 1986, dated 1988) come the findings set out here.

As to `NC(=O)CSC(c1ccc(F)cc1)c1ccc(F)cc1` [CRL 41 334, 2-(4,4ʹ-difluorobenzhydrylthio)acétamide], the “comportement et réactivités” value in the assay on souris [1] (souris, 128 mg/kg i.p.) is given as “sédation pendant 30 minutes”. Moreover, the Hypothermie in the assay on souris [1] (souris, 128 mg/kg i.p., à 30 minutes, durée 1 heure) was -4,1 °. Moreover, the “comportement et réactivités” value with souris [1] (souris, 2, 8 et 32 mg/kg i.p.) was “pas de modifications nettes du comportement et des réactivités”. For the same compound, in the assay on rat (128 mg/kg), the “durée des stéréotypies” value was above 420 min and the “stéréotypies atteignent leur maximum” value was 120 to 150 min. In the assay on rat (64 et 128 mg/kg, compared with amphétamine), the “intensité des stéréotypies” value was “comparable à celle obtenue respectivement avec 1 et 2 mg”. Also, in the assay with souris [2] (128 mg/kg, apomorphine 1 mg/kg s.c.), the “hypothermie induite par l'apomorphine” value is recorded as “aggrave l'hypothermie induite par l'apomorphine”. Besides, in the assay with souris [2] (128 mg/kg, compound alone), the température result is recorded as “entraîne une hypothermie”. For the same compound, the “comportements de verticalisation et de stéréotypies” value with souris [2] (apomorphine 1 ou 16 mg/kg s.c.) is recorded as “NE SONT PAS MODIFIES”. In the assay on souris [3] (128 mg/kg), the “Action sur la température” value is reported as “aggrave l'hypothermie induite par l'oxotrémorine” and the “Action sur les symptômes chlolinergiques périphériques” value is given as “diminue la défécation sans modifier la salivation et la lacrymation”. In the assay on souris [3], the “Action sur les tremblements” value is on record as “ne sont pas modifiés”. In the assay with souris [4], the “effets convulsivants de l'électrochoc” value is “s'oppose faiblement aux effets convulsivants” and the “effets létaux de l'électrochoc” value is listed as “sans modifier les effets létaux”. Moreover, the “motilité spontanée” value with souris [5] (souris, 128 mg/kg, 30 minutes avant passage dans l'actimètre) is listed as “cet effet n'apparaît plus”. Further, in the assay with souris [5] (souris, 8, mais surtout 32 et 128 mg/kg, 2 heures avant passage dans l'actimètre), the “motilité spontanée” value is “augmentation de la motilité spontanée”. The “motilité spontanée” value in the assay on souris [5] (souris, 32 et 64 mg/kg, 30 minutes avant passage dans l'actimètre) is “augmentation de la motilité”. In addition, in the assay on souris [6], the nombre de combats entry is reported as “diminue le nombre de combats”. Further, in the assay on souris [7], the “délai d'apparition de la mort” value was “augmente le délai d'apparition de la mort” and the “délai d'apparition des convulsions” value was “n'est pas modifié”. For the same compound, the “durée du sommeil barbiturique” value with souris [8] is “diminution importante de la durée du sommeil barbiturique”.
